Measurements as given in patent US20250382344A1, “Soluble GLP1/GIP/NPY2 Receptor Triple Agonists” (Boehringer Ingelheim International GmH, priority 2024, published 2025).
pEC50: −log10 of the molar value. Like-named read-outs stand apart in the source and are kept apart here.

Experiments:
hGLP1R = target: T1, hGLP1R (Homo sapiens, UniProt P43220); test: hGLP1R CreLuc assay in 0.5% and 100% plasma (HEK-293 CRE-luciferase reporter cells); format: cell-based; conditions: HEK-293 reporter cells
T1 construct: expressed in transfected cells; host or cells: HEK-293 CRE-luciferase reporter cells

[1] = Solubility in 0.1 M phosphate buffer at pH 7; format: physicochemical; conditions: 0.1 M phosphate buffer at pH 7, 10 mg/mL final peptide concentration, shaking 2 hours at room temperature, peptides as TFA-salts; measured sample pH 6.5-7.0
hGIPR = target: T2, hGIPR (Homo sapiens, UniProt P48546); test: hGIPR CreLuc assay in 0.5% and 100% plasma (CHO CRE-luciferase reporter cells); format: cell-based
T2 construct: expressed in transfected cells; host or cells: CHO CRE-luciferase reporter cells
T2 sequence (P48546 22-466): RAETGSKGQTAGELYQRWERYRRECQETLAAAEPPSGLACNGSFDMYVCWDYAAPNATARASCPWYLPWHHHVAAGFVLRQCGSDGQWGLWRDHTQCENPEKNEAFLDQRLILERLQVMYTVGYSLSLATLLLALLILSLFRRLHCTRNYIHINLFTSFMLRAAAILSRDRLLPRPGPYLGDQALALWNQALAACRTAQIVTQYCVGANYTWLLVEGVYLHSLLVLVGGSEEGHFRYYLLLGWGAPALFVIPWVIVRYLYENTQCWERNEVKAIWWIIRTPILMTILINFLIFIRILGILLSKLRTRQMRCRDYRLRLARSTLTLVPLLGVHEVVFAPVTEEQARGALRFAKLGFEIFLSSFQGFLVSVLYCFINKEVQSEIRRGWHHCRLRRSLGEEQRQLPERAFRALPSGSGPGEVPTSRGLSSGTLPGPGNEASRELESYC

[2] = 0.5% human plasma, read-out: hGIPR 0.5% hP

T1 sequence (P43220 24-463): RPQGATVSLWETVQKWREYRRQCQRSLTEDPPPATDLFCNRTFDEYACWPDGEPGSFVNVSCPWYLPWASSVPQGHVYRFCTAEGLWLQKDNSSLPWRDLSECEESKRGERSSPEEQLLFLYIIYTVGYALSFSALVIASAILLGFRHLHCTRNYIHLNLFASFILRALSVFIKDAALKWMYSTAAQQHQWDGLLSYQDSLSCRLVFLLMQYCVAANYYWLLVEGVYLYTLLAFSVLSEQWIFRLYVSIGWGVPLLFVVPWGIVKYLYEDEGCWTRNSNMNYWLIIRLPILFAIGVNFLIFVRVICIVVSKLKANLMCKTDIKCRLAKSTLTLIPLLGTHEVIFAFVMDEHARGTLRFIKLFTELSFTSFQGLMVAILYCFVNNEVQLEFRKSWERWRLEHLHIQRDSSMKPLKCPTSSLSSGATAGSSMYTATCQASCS

Row | SMILES | pEC50 (hGLP1R; 0.5% human plasma, read-out: hGLP1R 0.5% hP) | solubility at 2 h [1] [µg/mL] | pEC50 (hGIPR; [2]) | pEC50 (hGIPR; 100% human plasma, read-out: hGIPR 100% hP) | pEC50 (hGLP1R; 100% human plasma, read-out: hGLP1R 100% hP)
1 | CC[C@H](C)[C@H](NC(=O)[C@H](CC(C)C)NC(=O)[C@H](Cc1c[nH]cn1)NC(=O)[C@H](CCCNC(=N)N)NC(=O)[C@@H](NC(=O)[C@H](Cc1ccccc1)NC(=O)[C@H](C)NC(=O)C(C)(C)NC(=O)[C@H](CCC(N)=O)NC(=O)[C@H](C)NC(=O)[C@H](CCC(N)=O)NC(=O)[C@H](CCCCN)NC(=O)[C@H](CCC(=O)O)NC(=O)[C@H](CC(C)C)NC(=O)C(C)(C)NC(=O)[C@@H](NC(=O)[C@H](CO)NC(=O)[C@H](Cc1ccc(O)cc1)NC(=O)[C@H](CC(=O)O)NC(=O)[C@H](CO)NC(=O)[C@@H](NC(=O)[C@H](Cc1ccccc1)NC(=O)[C@@H](NC(=O)CNC(=O)[C@H](CCC(=O)O)NC(=O)C(C)(C)NC(=O)[C@@H](N)Cc1ccc(O)cc1)[C@@H](C)O)[C@@H](C)O)[C@@H](C)CC)C(C)C)C(=O)N[C@@H](CC(N)=O)C(=O)N[C@@H](CCCCNC(=O)CC[C@H](NC(=O)CC[C@H](NC(=O)CC[C@H](NC(=O)CC[C@H](NC(=O)CC[C@H](NC(=O)CCCCCCCCCCCCCCCCC(=O)O)C(=O)O)C(=O)O)C(=O)O)C(=O)O)C(=O)O)C(=O)N[C@@H](CC(C)C)C(=O)N[C@H](C(=O)N[C@@H](CCCNC(=N)N)C(=O)N[C@@H](CCC(N)=O)C(=O)N[C@@H](CCCNC(=N)N)C(=O)N[C@@H](Cc1ccc(O)cc1)C(N)=O)[C@@H](C)O [Compound 158, Y-Aib-E-G-T-F-T-S-D-Y-S-I-Aib-L-E-K-Q-A-Q-Aib-A-F-V-R-H-L-I-N-K(1,3)-L-T-R-Q-R-Y-NH2.C18DA-gGlu-gGlu-gGlu-gGlu-gGlu(1,2)] | 9.22 | 3200 | 9.30 | 7.84 | –
2 | CC[C@H](C)[C@H](NC(=O)[C@H](CC(C)C)NC(=O)[C@H](Cc1c[nH]cn1)NC(=O)[C@H](CCCNC(=N)N)NC(=O)[C@@H](NC(=O)[C@H](Cc1ccccc1)NC(=O)[C@H](CCC(=O)O)NC(=O)C(C)(C)NC(=O)[C@H](CCC(N)=O)NC(=O)[C@H](C)NC(=O)[C@H](CCC(N)=O)NC(=O)[C@H](CCCCN)NC(=O)[C@H](CCC(=O)O)NC(=O)[C@H](CC(C)C)NC(=O)C(C)(C)NC(=O)[C@@H](NC(=O)[C@H](CO)NC(=O)[C@H](Cc1ccc(O)cc1)NC(=O)[C@H](CC(=O)O)NC(=O)[C@H](CO)NC(=O)[C@@H](NC(=O)[C@H](Cc1ccccc1)NC(=O)[C@@H](NC(=O)CNC(=O)[C@H](CCC(=O)O)NC(=O)C(C)(C)NC(=O)[C@@H](N)Cc1ccc(O)cc1)[C@@H](C)O)[C@@H](C)O)[C@@H](C)CC)C(C)C)C(=O)N[C@@H](CC(N)=O)C(=O)N[C@@H](CCCCNC(=O)[C@@H](N)CCCCNC(=O)CC[C@H](NC(=O)CC[C@H](NC(=O)CC[C@H](NC(=O)CC[C@H](NC(=O)CC[C@H](NC(=O)CC[C@H](NC(=O)CC[C@H](NC(=O)CCCCCCCCCCCCCCCCC(=O)O)C(=O)O)C(=O)O)C(=O)O)C(=O)O)C(=O)O)C(=O)O)C(=O)O)C(=O)NC(C)(C)C(=O)N[C@H](C(=O)N[C@@H](CCCNC(=N)N)C(=O)N[C@@H](CCC(N)=O)C(=O)N[C@@H](CCCNC(=N)N)C(=O)N[C@@H](Cc1ccc(O)cc1)C(N)=O)[C@@H](C)O [Compound 30, Y-Aib-E-G-T-F-T-S-D-Y-S-I-Aib-L-E-K-Q-A-Q-Aib-E-F-V-R-H-L-I-N-K(1,3)-Aib-T-R-Q-R-Y-NH2.C18DA-gGlu-gGlu-gGlu-gGlu-gGlu-gGlu-gGlu-eLys(1,2)] | – | 4700 | 9.52 | – | 9.05
